Experimental data: the supplement of paper PMC10307832

Tests used:
Experiment in all cases: relative viability (nuclei count vs DMSO), 5 days (fraction); higher = more cells survive
[1] = compound: C=CC(=O)N1CCC[C@@H](n2nc(-c3ccc(Oc4ccccc4)cc3)c3c(N)ncnc32)C1 [Ibrutinib] + C[C@@H](Oc1cc(-c2cnn(C3CCNCC3)c2)cnc1N)c1c(Cl)ccc(F)c1Cl [Crizotinib] (partner 1 µM)
Outline: (§1)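 Lung cancer cell lines were seeded in 1536-well plates and dosed by pin tool the next day, with either a single drug or a fixed anchor-drug dose combined with five library-drug doses (not always all listed) spaced in √10 steps. Five days later, one step fixed the cells and stained their nuclei (final 0.05% Triton X-100, 1% formaldehyde, 1 ug/ml Hoechst), and nuclei were counted on 4× images. Relative viability is the nuclei count in treated wells divided by the count in vehicle wells, and each value is the median of duplicate plates.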

[2] = compound: C=CC(=O)N1CCC[C@@H](n2nc(-c3ccc(Oc4ccccc4)cc3)c3c(N)ncnc32)C1 [Ibrutinib] + O=C(CCCCCCC(=O)Nc1ccccc1)NO [Vorinostat] (partner 1 µM)
Outline: as §1

[3] = compound: C=CC(=O)Nc1cc(-n2c(=O)ccc3cnc4ccc(-c5ccc(NS(C)(=O)=O)cc5)cc4c32)ccc1C [BMX-IN-1] + C[C@]1(O)C[C@@H](c2nc(-c3ccc4ccc(-c5ccccc5)nc4c3)c3c(N)nccn32)C1 [Linsitinib] (partner 1 µM)
Outline: as §1

[4] = compound: C=CCc1cccc(/C=N/NC(=O)CN2CCN(Cc3ccccc3)CC2)c1O [PAC-1] + O=C(c1cc(Cc2n[nH]c(=O)c3ccccc23)ccc1F)N1CCN(C(=O)C2CC2)CC1 [Olaparib] (partner 8 µM)
Outline: as §1

Cell Line	relative viability ([1]; first compound 0.005 µM)	relative viability ([1]; first compound 0.01581 µM)	relative viability ([1]; first compound 0.05 µM)	relative viability ([1]; first compound 0.1581 µM)	relative viability ([1]; first compound 0.5 µM)	relative viability ([2]; first compound 0.005 µM)	relative viability ([2]; first compound 0.01581 µM)	relative viability ([2]; first compound 0.05 µM)	relative viability ([2]; first compound 0.1581 µM)	relative viability ([2]; first compound 0.5 µM)	relative viability ([3]; first compound 0.02 µM)	relative viability ([3]; first compound 0.2 µM)	relative viability ([3]; first compound 0.6325 µM)	relative viability ([3]; first compound 2 µM)	relative viability ([4]; first compound 0.02 µM)	relative viability ([4]; first compound 0.06325 µM)	relative viability ([4]; first compound 0.2 µM)	relative viability ([4]; first compound 2 µM)
NCI-H23	0.539	0.528	0.527	0.592	0.466	0.467	0.527	0.514	0.605	0.594	0.614	0.606	0.471	0.548	0.28	0.284	0.313	0.352
NCI-H322M	0.964	0.848	0.887	1.03	0.608	0.74	0.915	0.79	0.571	0.802	0.911	0.971	0.891	0.975	0.762	0.782	0.74	0.834
NCI-H358	0.706	0.45	0.401	0.682	0.303	0.606	0.598	–	0.809	0.283	1	0.732	0.816	0.806	0.581	0.827	0.569	0.37
NCI-H441	0.669	0.842	0.919	0.707	0.881	0.789	0.694	1.05	0.823	0.919	0.594	0.705	0.499	0.696	0.468	0.69	0.483	0.491
NCI-H460	1.11	0.614	1.04	–	1.12	0.855	0.667	0.695	0.794	0.781	1.04	1.07	1.45	0.777	0.4	0.457	0.466	0.369
NCI-H520	0.725	0.578	0.727	0.704	0.861	0.821	0.665	0.715	0.757	0.719	1.09	1.2	1.36	1.02	0.382	0.383	0.361	0.33
NCI-H596	0.974	0.955	0.903	0.803	0.747	0.468	0.628	0.501	0.57	0.572	1.12	1.21	1.02	0.936	0.633	0.715	0.607	0.665
NCI-H647	1.03	1.07	1.13	1.06	0.993	0.569	0.472	0.695	0.645	0.67	1.36	1.8	1.25	1.02	0.616	0.492	0.544	0.236
NCI-H650	–	0.656	–	0.863	0.805	0.36	0.389	0.413	0.578	0.45	0.839	1.09	1.02	0.858	0.328	0.41	0.387	0.381
NCI-H661	–	–	1.09	0.904	0.873	0.746	0.761	0.752	0.758	0.752	0.677	0.54	0.5	0.685	0.664	0.721	0.684	0.505
NCI-H727	0.74	0.616	0.71	0.868	0.617	1.11	1.18	1.26	0.808	1.12	0.325	0.393	0.261	0.27	0.753	0.715	0.568	0.68
NCI-H838	0.881	0.842	0.979	0.873	0.793	0.786	0.688	0.762	0.77	0.717	1.19	1.26	1.2	1.08	0.715	0.735	0.727	0.656
NCI-H1355	–	0.957	0.971	1.15	0.827	–	0.626	–	0.688	0.549	0.873	0.827	0.867	0.853	0.78	0.693	0.724	0.74
NCI-H1437	0.848	0.874	0.901	1.02	0.916	0.865	0.919	0.908	0.854	1.02	1.35	1.21	1.14	1.03	0.606	0.632	0.555	0.471
NCI-H1651	0.952	0.871	0.819	0.818	0.88	0.492	0.629	0.524	0.577	0.574	1.22	0.885	0.912	0.86	0.149	0.2	0.181	0.193
NCI-H1666	1.01	0.864	0.904	0.932	0.697	0.939	1.05	1.07	1.12	0.863	0.872	0.891	0.797	0.595	0.688	0.745	0.75	0.729
NCI-H1734	0.587	0.689	0.675	0.761	0.67	0.74	0.789	0.781	0.92	0.772	1.02	0.982	0.981	0.902	0.655	0.611	0.271	0.632
NCI-H1755	0.832	–	0.909	0.909	0.852	0.739	0.841	0.659	0.824	0.751	1.04	1.09	1.1	1	0.879	0.837	0.849	0.826

Cell Line	relative viability ([1]; first compound 0.005 µM)	relative viability ([1]; first compound 0.01581 µM)	relative viability ([1]; first compound 0.05 µM)	relative viability ([1]; first compound 0.1581 µM)	relative viability ([1]; first compound 0.5 µM)	relative viability ([2]; first compound 0.005 µM)	relative viability ([2]; first compound 0.01581 µM)	relative viability ([2]; first compound 0.05 µM)	relative viability ([2]; first compound 0.1581 µM)	relative viability ([2]; first compound 0.5 µM)	relative viability ([3]; first compound 0.02 µM)	relative viability ([3]; first compound 0.2 µM)	relative viability ([3]; first compound 0.6325 µM)	relative viability ([3]; first compound 2 µM)	relative viability ([4]; first compound 0.02 µM)	relative viability ([4]; first compound 0.06325 µM)	relative viability ([4]; first compound 0.2 µM)	relative viability ([4]; first compound 2 µM)
NCI-H1915	–	0.858	0.92	0.921	0.897	0.453	0.484	0.438	0.678	0.494	1.14	1.1	1.14	1.1	0.234	0.262	0.22	0.274
NCI-H1944	0.99	0.88	0.963	–	0.782	0.551	0.47	0.517	0.47	0.467	1.34	1.22	1.33	1.2	0.389	0.434	0.425	0.402
NCI-H1975	0.986	0.859	0.88	0.96	0.558	0.759	0.556	0.649	0.792	0.324	1.22	1.09	1.06	0.855	0.779	0.809	0.811	0.703
NCI-H1993	0.843	0.744	0.704	–	0.713	0.443	0.759	1.13	1.01	0.486	0.68	0.721	–	0.636	1.12	1.16	0.684	0.961
NCI-H2009	1.04	1.04	1.08	1.11	1.1	0.728	0.705	0.764	0.759	0.742	1.27	1.27	1.29	1.2	0.681	0.655	0.677	0.652
NCI-H2023	0.55	0.637	0.423	0.603	0.356	0.565	0.6	0.48	0.918	0.49	0.798	0.695	0.769	0.726	0.468	0.425	0.449	0.257
NCI-H2085	0.92	0.852	0.772	0.918	0.706	0.85	0.708	0.74	0.62	0.695	0.915	0.934	1.04	0.97	0.728	0.74	0.74	0.831
NCI-H2087	0.849	0.949	1.04	0.872	0.862	0.97	0.745	0.385	–	0.538	1.14	1.11	1.34	1.1	0.53	0.504	0.579	0.451
NCI-H2126	–	1	0.994	1.06	0.936	0.454	0.748	0.644	0.725	0.56	0.74	0.659	0.747	0.678	0.896	0.871	0.941	0.886
NCI-H2228	0.4	0.359	0.36	0.569	0.359	0.696	0.486	0.569	0.502	0.648	0.969	0.907	0.848	0.648	0.619	0.607	0.619	0.646
NCI-H2347	0.679	0.684	0.739	0.592	0.696	0.59	0.546	0.566	0.493	0.53	1.1	1.02	1.04	0.958	0.544	0.622	0.551	0.515
NCI-H2405	–	0.886	0.779	0.824	0.8	0.913	1.12	–	–	1.03	1.01	0.875	0.975	0.921	0.879	0.894	0.922	0.94
NCI-H3122	0.237	0.263	0.254	0.253	0.244	1.05	0.944	0.874	0.858	1.06	1.04	1.08	1.01	1.02	0.635	0.634	0.624	0.566
PC-3 [JPC-3]	0.988	0.907	0.975	0.987	0.6	0.664	0.774	0.497	0.289	0.399	0.962	0.978	1.03	0.988	1.04	1.15	1.1	1.09
PC-14	0.886	0.968	0.896	0.901	0.563	0.723	0.662	0.611	0.944	0.324	1.04	1.05	1.01	0.973	0.255	0.275	0.288	0.298
RERF-LC-KJ	0.865	0.742	0.825	0.889	0.815	0.631	0.703	0.593	0.668	0.659	0.911	0.974	0.951	0.935	0.891	0.86	0.929	0.83
SK-LU-1	0.869	0.741	1.04	1.1	0.859	0.883	0.715	0.765	0.813	0.766	1.3	1.15	1.21	1.09	0.405	0.465	0.455	0.414
SW 1573	0.87	0.807	0.803	0.986	0.77	–	0.793	0.694	1.06	1.06	0.709	0.864	0.825	0.771	0.446	0.426	0.442	0.41
